Experimental data: patent US20060045881A1, “Anti-cancer vaccines” (Board of Regents, The University of Texas System, priority 2004, published 2006)
Values joined by “and” are separate entries in the source; they are usually repeats but may differ in a detail not shown here. Equal values may be shown once.

Key:
[1] = tested on: PR1-CTL; assay: Annexin V apoptosis of PR1-CTL challenged with peptide-pulsed T2 cells; assay type: cell-based, human; details: for apoptosis (Annexin V) of high avidity PR1-CTL: T2 pulsed with 20 μM peptide, 16 to 18 hr
Description: High PR1 concentration and proteinase 3-overexpressing CML cells induce apoptosis of high avidity PR1-specific CTL. […] All high avidity PR1-CTL exposed to high dose PR1 were dead after 36 to 48 hr of co-culture.

[2] = tested on: T2 cells; assay: 4-hr cytotoxicity of peptide-elicited CTL lines against peptide-loaded T2 cells
Description: CTL cytotoxicity assay. A semiautomated minicytotoxicity assay was used to determine specific lysis as described previously (Molldrem, 2000; Molldrem et al., 1996). Briefly, effector cells were prepared in doubling dilutions from 6×10^3 to 25×10^3 cells/well and were plated in 40 μl, 60-well Terasaki trays (Robbins Scientific, Sunnyvale, Calif., USA) with six replicates per dilution. Target cells (T2 cells, marrow-derived leukemic cells, or BM from a healthy donor) at a concentration of 2×10^6 cells/ml were stained with 10 μg/ml of Calcein-AM (Molecular Probes Inc.) for 60 min at 37° C. After washing three times in CM plus 10% AB, target cells were resuspended at 10^5 cells/ml, and 10^3 target cells in 10 μl medium were added to each well containing effector cells. Wells with target cells alone and medium alone were used for maximum (max) and minimum (min.) fluorescence emission, respectively. After 4 hr incubation at 37° C. in 5% CO2, 5 μl FluoroQuench (One Lambda Inc., Canoga Park, Calif., USA) was added to each well, and the trays were centrifuged for 1 min at 60 g before measurement of fluorescence using an automated CytoFluor II plate reader (PerSeptive Biosystems, Framingham, Mass., USA). The percentage of lysis was calculated as follows: % lysis={1−[(mean experimental mission−mean min.)/(mean max−mean min.)]}×100%.
Induction of Primary CTL responses to peptides. These peptides were next used to stimulate T cells specific for peptide-coated targets. PBMC from a normal healthy donor heterozygous for HL-A2.1 were stimulated with peptide-pulsed T2 cells. […] Briefly, T2 cells (which co-express the costimulatory molecule B7.1) were washed 3 times in serum-free RPMI culture media supplemented with penicillin/streptomycin and glutamine (CM) and incubated with peptide at 20 μg/mL for 2 hr in CM. The peptide loaded T2 cells were then irradiated with 7500 cGy, washed once, and suspended with freshly isolated PBMC at a 1:1 ratio in CM supplemented with 10% human serum (HS) (Sigma, St. Louis, Mo.). […]

[3] = tested on: human myeloid leukemia cells; assay: Cytotoxicity of peptide-elicited CTL against HLA-A2.1-positive myeloid leukemia marrow cells; assay type: cell-based; details: for lysis of HLA-A2.1-positive AML marrow cells by peptide-specific CTL: MY2: E:T 5:1
Description: (§1) PR1 specific CTL preferentially lyse human myeloid leukemia cells. It was next determined whether the PR1-specific CTL line was capable of lysing allogeneic human myeloid leukemia cells from HLA-A2.1 positive individuals. As controls, two cell lines expressing low levels of Pr3 were used: HLA-A2.1 transfected K562 cells and U937 cell line which lack HLA-A2.1 and would therefore be incapable of presenting peptides in an HLA-A2.1-restricted manner. Cryopreserved bone marrow cells from patients P1-P4, and marrow cells from a healthy normal volunteer (D2, a bone marrow donor for an allogeneic bone marrow transplant performed on patient P3) were thawed and used as targets for the PR1-specific CTL line.
(§2) It was next determined whether the MY2 and MY4-specific CTL lines were capable of lysing allogeneic human myeloid leukemia cells from HLA-A2.1 positive individuals. The targets were BM cells from pre-transplant HLA-A2.1-positive AML patients. As controls, BM cells from HLA-A2.1-negative AML patients, BM from HLA-A2.1-positive healthy donors and two cell lines expressing low levels of MPO were used: HLA-A2.1 transfected K562 cells and the U937 cell line which lacks HLA-A2.1 and would therefore be incapable of presenting peptides in an HLA-A2.1-restricted manner.

[4] = tested on: marrow cells from a normal healthy donor; assay: Cytotoxicity of peptide-elicited CTL against normal donor marrow cells; assay type: cell-based, human
Description: as §1, §2

[5] = molecular target: HLA-A2.1 (Homo sapiens, UniProt P04439, D140Y/D185E/D98H/E176V/E277Q/G131W/G231S/I119V/I121R/I166T/I218V/L300P/L318F/N151K/N90K/P208A/P217A/Q86G/Q94H/R138H/R169H/T345S); assay: HLA-A2.1 surface expression on peptide-coated T2 cells (indirect flow cytometry, BB7.2); assay type: binding; details: compared with T2 without peptide / control influenza peptide
Description: Cell lines and peptide binding. T2 cells (American Type Culture Collection, Rockville, Md., USA) were maintained in culture in CM plus 10% FBS (Atlanta Biologicals Inc., Norcross, Ga., USA). PR1 peptide was incubated at increasing concentrations for 18 hr at 37° C. with 100 μg/ml β2m (Sigma-Aldrich) with 10^6 T2 cells in 1 ml CM. Cells were washed twice with CM, stained with BB7.2 Ab, washed again, and then stained with FITC-labeled secondary Ab (Becton Dickinson Immunocytometry Systems, San Jose, Calif., USA).
T2 cells are a human lymphocyte line that lacks TAP1 and TAP2 genes and therefore cannot present endogenous MHC class I restricted antigens. If the peptide effectively bound HLA-A2.1, it stabilized the complex with (β2-microglobulin and increased HLA-A2.1 surface expression, which could be measured using flow cytometry. An HLA-A2.1 specific monoclonal antibody (BB7.2, ATCC, Rockville, Md.) followed by a FITC-labeled secondary antibody (CalTag Laboratories, Burlingame, Calif.) was used to measure surface expression of HLA-A2.1.
T2 cells are a human lymphocyte line that lacks TAP1 and 2 genes and cannot therefore present endogenous MHC class I restricted antigens. If the peptide effectively bound HLA-A2.1, it stabilized the complex with β2-microglobulin and increased HLA-A2.1 surface expression, which could be measured using flow cytometry. An HLA-A2.1 specific monoclonal antibody (BB7.2, ATCC, Rockville, Md.) followed by a FITC-labeled secondary antibody (CALTAG) was used to measure surface expression of HLA-A2.1. […] The labeled heterotrimer complex was separated from unincorporated β2-microglobulin by high-performance liquid

[6] = tested on: AML CFU-GM; assay: CFU-GM colony inhibition by MY4-pulsed CTL, AML marrow; assay type: cell-based, human; details: patient P1 (M2-AML) and P2 (M4-AML), respectively; 13 day MY4-pulsed CTL
Description: (§3) In contrast there was no inhibition of CFUGM from normal marrow, D1 and D2, the corresponding HLA identical marrow donors for P1 and P2.

[7] = tested on: CFU-GM from normal marrow; assay: CFU-GM colony inhibition by MY4-pulsed CTL, normal marrow; assay type: cell-based, human; details: D1 and D2, HLA identical marrow donors
Description: as §3

[8] = tested on: HMy2.CIR-A2 cells transfected with Pr3; assay: PR1-specific CTL lysis of Pr3-transfected HMy2.CIR-A2 cells; assay type: cell-based, human; details: clone 1.4; E:T 25:1
Description: Expression of proteinase 3 following transfection into and HMy2.CIR and HMy2.CIR-A2 cells. […] The parental HMy2.CIR cell line, which has lost expression of HLA-A and -B, and the HLA-A2.1-transfected HMy2.CIR cells (named HMy2.CIR-A2), were both transfected with Pr3 as described below.
Ten million HMy2.CIR (ATCC, Rockville, Md.), or 10 million HMy2.CIR-A2 cells were each washed in phosphate buffered saline (PBS) and re-suspended in 0.8 mL of ice-cold PBS and put into an electroporation cuvette with 20 μg of circular plasmid DNA. The mixture was exposed to an electric pulse of 320 volts at 960 microF and incubated on ice for 10 min. Cells were then added to 10 mL of pre-warmed CM. The following day, the CM was replaced. On day 2, cells were grown under selection conditions using 200 μg/mL Zeocin. Following one week of selection, the cells were subcloned by limiting dilution under Zeocin selection, and 6 clones were isolated.
HMy.2.CIR-A2 cells transfected with Pr3 are susceptible to lysis by PR1 specific CTL. It was next determined whether the transfected HMy2.CIR-A2 cells could be lysed by PR1 specific CTL. The PR1 specific CTL were elicited in the manner previously described, and after 22 days in culture were combined at a 25:1 E:T ratio with HMy2.CIR-A2 transfected either with the Pr3-containing vector pRTZ.2, or the empty vector containing the reporter gene, CAT. […]

[9] = tested on: PBMC from HLA-A2.1+ healthy donors; assay: In vitro elicitation of PR1-CTL from PBMC with peptide-pulsed APC, PR1/HLA-A2 tetramer staining; assay type: cell-based, human
Description: Peptide-specific CTLs were expanded in culture using methods described previously (Molldrem et al., 1996; Molldrem et al., 1997). Briefly, PBMCs from healthy donors or CML patients were stimulated in vitro with PR1, pp65, or flu peptides. T2 cells were washed three times in serum-free CM and incubated with peptide at the indicated peptide concentration for 2 hr in CM.
Ab's and flow cytometry. For routine surface-antigen staining, 10^6 PBMCs were incubated at 4° C. with Ab. After washing, cells were incubated with FITC-labeled CD8 (Caltag Laboratories Inc., Burlingame, Calif., USA) for 30 min on ice. Surface expression of TCR was determined with FITC-labeled TCR-αβ (PharMingen, San Diego, Calif., USA), and annexin V using FITC-labeled Ab (Caltag Laboratories). Proteinase 3 expression was determined with primary mouse Ab (Accurate Chemical & Scientific Corp., Westbury, N.Y., USA). Mouse monoclonal anti-HLA-A2.1 Ab BB7.2 and anti-HLA-ABC w6/32 were derived from culture supernatants of a hybridoma cell lines (American Tissue Culture Collection). Cells were washed and fixed in 2% paraformaldehyde and analyzed on a FACScan (Becton Dickinson Immunocytometry Systems), and data were analyzed using CELLQuest (Becton Dickinson Immunocytometry Systems) software. The minimum concentration of tetramer necessary to show distinctly different avidities was determined in titration experiments. Each tetramer reagent was titered individually and used at the optimal concentration. The tetramer concentration showing the maximal separation of fluorescence intensity of CTL populations was generally 10-20 μg/ml. Propidium iodide (PI) (Becton Dickinson Immunocytometry Systems) staining (1 μg/ml) was performed to exclude dead cells, according to the manufacturer's instructions. A “dump” channel was used with tetramer staining to eliminate monocytes and B lymphocytes with nonspecific binding to the HLA-A2 heavy chain by staining with PerCP-labeled CD14 and CD19 (both Becton Dickinson Immunocytometry Systems).
PR1-specific CTL with high and low TCR avidity can be elicited from healthy donors. To determine whether high and low avidity PR1-CTL are present in healthy donors, a modified tetramer staining technique (Savage et al., 1999) using limiting tetramer concentration to visualize high and low fluorescence intensity tetramer+ cells, which correlates with high and low TCR avidity was utilized. Sufficient PR1-CTL was elicited by stimulating PBMC with increasing peptide concentrations for 28 days. PBMC from an HLA-A2.1+ healthy donor stimulated weekly for 28 days with 0.2 μM PR1 elicited 1.3% high intensity PR1/HLA-A2 tetramer-staining CTL with a median channel of fluorescence (MCF) of 293 (high avidity PR1-CTL), while stimulation with 20 μM PR1 produced 3.1% low avidity (MCF=93) PR1-specific CTL (FIG. 11A). […] Cultures stimulated with 2 μM PR1 produced fewer PR1-specific CTL with mixed TCR avidities, while stimulation with ≦0.02 μM PR1 induced <0.1% PR1-CTL. […] To further verify that tetramer staining intensity correlates with TCR avidity, the kinetics of tetramer staining decay was determined using previously described techniques (Savage et al., 1999).

[10] = tested on: HLA-A2+ patients with CML, AML or MDS; assay: Phase I/II PR1 peptide vaccine study in myeloid leukemia patients; assay type: in vivo, human
Description: PR1 peptide is injected subcutaneously in incomplete Freund's adjuvant every 3 weeks for 3 injections to induce a PR1 specific host response against the myeloid leukemia. Both in Phase I and in Phase II, patients will also be evaluated for signs of immune reactivity. […] The amount of Proteinase 3 expression in the leukemia cells is studied by cytoplasmic flow cytometry analysis. Any clinical responses (defined by standard criteria as hematological and/or cytogenetic responses) will be correlated with the in vitro testing. Vaccination at 3 dose levels of peptide with a fixed amount of IFA will be conducted, and stopping criteria will be guided by established toxicity criteria.
HLA-A2^+ patients with CML (interferon-resistant or relapsed after BMT), AML (smoldering relapse or ≧2nd CR) or MDS (RAEB or RAEBt) with no detectable antibodies to proteinase 3 (no detectable cANCA) were eligible. Patients that relapsed after BMT or those ineligible for BMT were also eligible for study. […]
Secondarily, clinical responses were assessed by standard criteria with bone marrow biopsy, cytogenetic studies (standard chromosome banding) and molecular studies (PCR for bcr-abl or other known abnormalities such as t(15;17), inv16, etc.) 3 weeks after the last vaccination. Patients were seen and evaluated in clinic every 3 weeks during the study period. […]

[11] = T2 loaded with 1.0 μg/mL of same peptide, varying E:T

Influenza nucleoprotein: control influenza peptide, Influenza B nucleoprotein (aa 85-94), known high binding affinity to HLA-A2.1 (KLGEFYNQMM) [reference compound]
apoptosis (Annexin V) of high avidity PR1-CTL [1]: no apoptosis was observed

KLLLALAGL [MY2]
specific lysis of peptide-loaded T2 cells by CTL line generated against the peptide ([2]; T2 loaded with 2.0 μg/mL of same peptide): high specific lysis
lysis of HLA-A2.1-positive AML marrow cells by peptide-specific CTL [3]: readily lysed
lysis of HLA-A2.1-positive normal healthy donor marrow cells by MY2-specific CTL ([4]; E:T 20:1): 43%

KLNDILLIQL [PR7I]
surface HLA-A2.1 expression on peptide-pulsed T2 cells (in words) [5]: strong peptide binding

KLNDVLLIQL [PR7V]
surface HLA-A2.1 expression on peptide-pulsed T2 cells (in words) [5]: strong peptide binding

RLFEQVMRI [MY4]
inhibition of CFU-GM [6]: 63% and 34%
lysis of HLA-A2.1-positive AML marrow cells by peptide-specific CTL [3]: killed AML cells
inhibition of CFU-GM from normal marrow [7]: no inhibition
specific lysis of HLA-A2+ normal BMC by peptide-specific CTL [4]: not normal cells

RLFPDFFTRV [PR2]
specific lysis of peptide-loaded T2 cells by CTL line generated against the peptide [2, 11]: did not demonstrate any significant cytotoxicity
surface HLA-A2.1 expression on peptide-pulsed T2 cells (in words) [5]: increased surface HLA-A2.1 expression

VLQELNVTV [PR1]
specific lysis of Pr3-transfected cells by PR1-specific CTL [8]: 36%
specific lysis of peptide-loaded T2 cells by CTL line generated against the peptide [2, 11]: high specific lysis
% of bulk culture CTL double-positive (CD8, PR1-tetramer) ([9]; 32 day-old PR1-stimulated CTL culture): 4.3%
% PR1/HLA-A2 tetramer-staining CTL ([9]; PBMC stimulated weekly 28 days with 0.2 μM PR1 (high avidity)): 1.3%
% of CTL line specific for PR1 (PR1-tetramer/CD8) ([9]; day 17 CTL line elicited against PR1): 2.4%
% PR1/HLA-A2 tetramer-staining CTL ([9]; stimulated with 20 μM PR1 (low avidity)): 3.1%
% PR1-CTL induced ([9]; stimulation with ≦0.02 μM PR1): < 0.1%
surface HLA-A2.1 expression on peptide-pulsed T2 cells (in words) [5]: increased surface HLA-A2.1 expression
specific lysis of CML blast crisis marrow cells by PR1-specific CTL ([3]; CML-BC, E:T 25:1): 73%
lysis of CML #3 BM cells by patient CTL elicited with 0.2 μM PR1 ([3]; CTL from patients CML #1 and CML #2, respectively, E:T 20:1): 24%±5% and 33%±6%
specific lysis of CML marrow cells by PR1-specific CTL ([3]; P1, CML in chronic phase, E:T 6:1): 53%
patients with complete remission ([10]; 9 patients (1 AML and 1 CML)): 2 patients
patients in whom PR1-specific CTL immunity was elicited (tetramer staining) ([10]; 9 patients, 0.25, 0.5 or 1.0 mg every 3 weeks x3): 6 of 9
apoptosis (Annexin V) of high avidity PR1-CTL [1]: underwent apoptosis
apoptosis (Annexin V) of low avidity PR1-CTL ([1]; high or low concentrations of PR1): did not undergo apoptosis
lysis of normal donor marrow cells by PR1-specific CTL ([4]; donor D2): < 20%
